Test results published in patent publication US20020026053A1, “Novel 3-(substituted) -2- indolinones compounds and use thereof as inhibitors of protein kinase activity” (priority 1997, published 2002).

Legend:
PDGF-R = PDGF-R Assay (cellular ELISA, U1242 cells); format: cell-based; design: concentration or dose not given beside the values
Method in brief: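 Cellular ELISA for receptor autophosphorylation: after 2 hr test-compound treatment of serum-free U1242 cells at 37°C, ligand is added for 5–10 min, cells are lysed (HNTG) and receptor captured by specific antibody. Anti-phosphotyrosine plus secondary antibody with ABTS colour read at 410/630 nm, compared with compound-free control cells.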

EGFR = molecular target: T1, EGFR (Homo sapiens, UniProt P00533); experiment: Biochemical EGFR Assay; design: concentration or dose not given beside the values
T1 construct: endogenous in cells; host or cells: A431 cells (lysate, captured with SUMO1 anti-EGFR antibody)
T1 sequence (P00533 25-1210): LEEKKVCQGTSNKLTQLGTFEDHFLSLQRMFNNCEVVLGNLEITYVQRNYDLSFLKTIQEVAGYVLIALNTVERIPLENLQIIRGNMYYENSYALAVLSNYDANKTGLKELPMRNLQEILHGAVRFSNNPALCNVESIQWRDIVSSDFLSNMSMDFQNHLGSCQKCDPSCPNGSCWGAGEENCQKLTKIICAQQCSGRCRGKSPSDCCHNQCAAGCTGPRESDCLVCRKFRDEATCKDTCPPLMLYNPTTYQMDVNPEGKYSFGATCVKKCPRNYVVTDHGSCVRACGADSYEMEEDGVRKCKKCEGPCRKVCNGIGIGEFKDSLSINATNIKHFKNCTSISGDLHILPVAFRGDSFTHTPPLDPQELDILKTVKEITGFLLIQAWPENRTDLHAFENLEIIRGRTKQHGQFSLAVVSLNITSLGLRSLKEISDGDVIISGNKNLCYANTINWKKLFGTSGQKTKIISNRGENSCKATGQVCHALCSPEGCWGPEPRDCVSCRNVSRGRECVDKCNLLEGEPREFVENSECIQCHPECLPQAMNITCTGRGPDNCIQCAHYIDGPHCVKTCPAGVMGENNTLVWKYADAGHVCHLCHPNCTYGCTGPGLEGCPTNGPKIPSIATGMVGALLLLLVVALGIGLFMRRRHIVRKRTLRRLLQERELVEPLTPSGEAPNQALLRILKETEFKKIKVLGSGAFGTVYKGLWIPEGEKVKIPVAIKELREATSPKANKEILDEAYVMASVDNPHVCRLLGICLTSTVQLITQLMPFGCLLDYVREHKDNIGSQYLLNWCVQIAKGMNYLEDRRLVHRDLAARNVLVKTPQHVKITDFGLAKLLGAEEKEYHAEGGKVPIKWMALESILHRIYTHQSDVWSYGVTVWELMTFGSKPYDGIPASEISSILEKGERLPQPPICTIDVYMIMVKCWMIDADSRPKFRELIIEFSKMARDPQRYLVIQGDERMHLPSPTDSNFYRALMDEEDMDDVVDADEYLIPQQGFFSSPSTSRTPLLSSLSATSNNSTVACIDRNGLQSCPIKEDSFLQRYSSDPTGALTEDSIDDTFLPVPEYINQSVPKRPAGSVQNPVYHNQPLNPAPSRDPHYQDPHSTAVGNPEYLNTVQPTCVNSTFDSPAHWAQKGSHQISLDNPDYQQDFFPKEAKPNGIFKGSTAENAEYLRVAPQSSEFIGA
Procedure: This assay measures the in vitro kinase activity of EGFR using ELISA.
1. Corning 96-well Elisa plates (Corning Catalog No. 25805-96).
2. SUMO1 monoclonal anti-EGFR antibody (Biochemistry Lab, SUGEN, Inc.).
3. PBS (Dulbecco's Phosphate-Buffered Saline, Gibco Catalog No. 450-1300EB).
6. A431 cell lysate (Screening Lab, SUGEN, Inc.)
9. Adenosine-5′-triphosphate (ATP, from Equine muscle, Sigma Cat. No. A-5394).
Prepare a 1.0 mM solution in dH2O. This reagent should be made up immediately prior to use and kept on ice.
Prepare a 1.0 M stock solution in dH2O.
11. ATP/MnCl2 phosphorylation mix
This reagent should be prepared immediately before use and kept on ice
12. NUNC 96-well V bottom polypropylene plates (Applied Scientific Cat. No. AS-72092).
13. Ethylenediaminetetraacetic acid (EDTA)
Prepare 200 mM working solution in dH2O. Adjust to pH 8.0 with 10 N NaOH.
14. Rabbit polyclonal anti-phosphotyrosine serum (Biochemistry Lab, SUGEN, Inc.)
15. Goat anti-rabbit IgG peroxidase conjugate (Biosource Cat. No. ALI0404)
16. ABTS (2,2′-azino-bis(3-ethylbenzthiazoline-6-sulfonic acid), Sigma Cat. No. A-1888).
Mix first two ingredients in about 900 ml dH2O, adjust pH to 4.0 with phosphoric acid. Add ABTS, cover, let sit about 0.5 hr., filter. The solution should be kept in the dark at 4° C. until ready to use.
17. Hydrogen peroxide 30% solution (Fisher Cat. No. H325)
Mix 15 ml ABTS solution and 2.0 μl H2O2. Prepare 5 minutes before use.
1. Coat Corning 96 well ELISA plates with 0.5 μg SUMO1 in 100 μl PBS per well, store overnight at 4° C.
2. Remove unbound SUMO1 from wells by inverting plate to remove liquid. Wash 1× with dH2O. Pat the plate on a paper towel to remove excess liquid.
3. Add 150 μl of Blocking Buffer to each well. Incubate for 30 min. at room temperature with shaking.
4. Wash plate 3× with deionized water, then once with TBST. Pat plate on a paper towel to remove excess liquid and bubbles.
5. Dilute lysate in PBS (7 μg lysate/100 μl PBS)
6. Add 100 μl of diluted lysate to each well. Shake at room temperature for 60 min.
7. Wash plates as described in 4, above.
8. Add 120 μl TBS to ELISA plate containing captured EGFR.
9. Dilute test compound 1:10 in TBS in 96-well polypropylene plates (ie. 10 μl compound+90 μl TBS).
10. Add 13.5 μl diluted test compound to ELISA plate.
11. Incubate for 30 minutes while shaking at room temperature.
13. After 5 minutes, stop reaction by adding 16.5 μl of 200 mM EDTA (pH 8.0) to each well, shaking continuously. After the EDTA has been added, shake for 1 min.
14. Wash 4× with deionized water, twice with TBST.
15. Add 100 μl anti-phosphotyrosine (1:3000 dilution in TBST) per well. Incubate 30-45 min. at room temperature, with shaking.
16. Wash as described in 4, above.
17. Add 100 μl Biosource Goat anti-rabbit IgG peroxidase conjugate (1:2000 dilution in TBST) to each well. Incubate 30 min. at room temperature, with shaking.
18. Wash as described in 4, above.
19. Add 100 μl of ABTS/H2O2 solution to each well.
20. Incubate 5 to 10 minutes with shaking. Remove any bubbles.
21. If necessary stop reaction with the addition of 100 μl 0.2 M HCl per well.
22. Read assay on Dynatech MR7000 ELISA reader. Test Filter: 410 nM Reference Filter: 630 nM

SMILES | PDGF Kinase % Inhibition (P.119) (PDGF-R) [%] | Biochem EGFR % Inhibition (P.167) (EGFR) [%]
COc1c(Cl)cc(C=C2C(=O)Nc3c(Br)cc(Br)c(C)c32)cc1C(C)(C)C [10732/H09] | −14.4 | −7.4
Cc1c(Br)cc(Br)c2c1C(=Cc1cc(Cl)c(OCc3ccccc3)c(C(C)(C)C)c1)C(=O)N2 [10732/H10] | −21.0 | −21.3
COc1c(I)cc(C=C2C(=O)Nc3c(Br)cc(Br)c(C)c32)cc1C(C)(C)C [10732/H11] | −16.0 | −15.1
Cc1c(Br)cc(Br)c2c1C(=Cc1cc(I)c(OCc3ccccc3)c(C(C)(C)C)c1)C(=O)N2 [10733/H02] | −5.6 | 3.2
COc1c([N+](=O)[O-])cc(C=C2C(=O)Nc3c(Br)cc(Br)c(C)c32)cc1C(C)(C)C [10733/H03] | 16.8 | −16.5
COc1c(C(C)(C)C)cc(C=C2C(=O)Nc3c(Br)cc(Br)c(C)c32)cc1C(C)(C)C [10733/H04] | −14.5 | −24.0
Cc1c(Br)cc(Br)c2c1C(=Cc1cc(C(C)(C)C)c(OCc3ccccc3)c(C(C)(C)C)c1)C(=O)N2 [10733/H05] | −15.3 | 15.9
COc1c(C)cc(C=C2C(=O)Nc3c(Br)cc(Br)c(C)c32)cc1C [10733/H06] | −12.9 | −10.5
Cc1cc(C=C2C(=O)Nc3c(Br)cc(Br)c(C)c32)cc(C)c1OCc1ccccc1 [10733/H07] | −19.0 | −6.2
COc1cc(Br)cc(C=C2C(=O)Nc3c(Br)cc(Br)c(C)c32)c1O [10733/H08] | −15.3 | 0.3
Cc1c(Br)cc(Br)c2c1C(=Cc1cc(Br)ccc1O)C(=O)N2 [10733/H09] | 5.0 | −3.1
Cc1c(Br)cc(Br)c2c1C(=Cc1cc([N+](=O)[O-])ccc1O)C(=O)N2 [10733/H10] | 10.7 | −3.1
COc1c(O)ccc(C=C2C(=O)Nc3c(Br)cc(Br)c(C)c32)c1[N+](=O)[O-] [10733/H11] | −4.8 | 7.0
